Measurements published in EP4745134A1 (Jiangsu Yahong Meditech Co., Ltd., priority 2023, dated 2025).
Read-outs that look alike come from different tables or passages of the source.

Legend:
HCT116 MTAP KO cells = test: Inhibitory activity against cell proliferation (CellTiter Glo, 6 days), HCT116 MTAP KO; type: cell-based; settings: for IC50: Homo sapiens, HCT-116, 144 h; for Selectivity HCT 116-WT/ HCT116 MTAP KO: ratio of IC50 HCT116-WT / HCT116 MTAP KO
In short: (§1)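 250 cells/well, McCoy's 5A + 10% FBS, o/n 37°C 5% CO2; cpd 8-pt 4-fold from 10000 nM, 6 d; CTG lum on day 7; IC50 vs DMSO.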

PRMT5-MTA = PRMT5-MTA (Homo sapiens, UniProt O14744); test: Enzymatic inhibitory activity against PRMT5-MTA (AlphaScreen); type: biochemical
In short: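 PRMT5/[…] (1 nM) was preincubated for 30 min at room temperature with 1 µM […] and 2.5 µM SAM, then exposed to compound (10-point, 3-fold from 1000 nM) for 15 min at 23 °C. Histone H4 substrate (5 nM) was added and reacted for 45 min at 23 °C. Symmetric dimethyl-R3 H4 was detected by AlphaScreen and IC50 calculated.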

HCT116-WT cells = test: Inhibitory activity against cell proliferation (CellTiter Glo, 6 days), HCT116-WT; type: cell-based; settings: 144 h
In short: as §1

[1] = HCT116 MTAP KO cells, 6 days, CellTiter Glo, read-out: HCT116 MTAP KO IC50
[2] = HCT116-WT cells, 6 days, CellTiter Glo, read-out: HCT116-WT IC50

PRMT5-MTA, sequence (O14744 whole entry): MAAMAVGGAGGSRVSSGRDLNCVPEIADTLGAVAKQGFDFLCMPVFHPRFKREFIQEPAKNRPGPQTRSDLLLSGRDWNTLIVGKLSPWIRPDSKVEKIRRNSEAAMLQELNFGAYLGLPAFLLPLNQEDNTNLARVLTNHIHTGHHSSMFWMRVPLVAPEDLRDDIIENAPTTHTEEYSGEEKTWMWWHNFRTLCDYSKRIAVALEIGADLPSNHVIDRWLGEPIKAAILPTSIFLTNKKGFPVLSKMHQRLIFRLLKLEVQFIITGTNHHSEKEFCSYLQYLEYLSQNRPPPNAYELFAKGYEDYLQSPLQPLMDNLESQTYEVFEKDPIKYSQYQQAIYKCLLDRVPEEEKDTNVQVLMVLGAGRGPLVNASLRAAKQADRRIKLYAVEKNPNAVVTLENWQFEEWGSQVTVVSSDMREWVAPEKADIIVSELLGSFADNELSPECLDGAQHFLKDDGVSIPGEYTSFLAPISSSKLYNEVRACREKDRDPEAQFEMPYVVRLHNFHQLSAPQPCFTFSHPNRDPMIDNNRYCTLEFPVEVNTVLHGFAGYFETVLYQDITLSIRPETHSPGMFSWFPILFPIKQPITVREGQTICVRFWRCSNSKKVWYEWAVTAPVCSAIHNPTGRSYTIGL
PRMT5-MTA, sequence (Q9BQA1 whole entry partner): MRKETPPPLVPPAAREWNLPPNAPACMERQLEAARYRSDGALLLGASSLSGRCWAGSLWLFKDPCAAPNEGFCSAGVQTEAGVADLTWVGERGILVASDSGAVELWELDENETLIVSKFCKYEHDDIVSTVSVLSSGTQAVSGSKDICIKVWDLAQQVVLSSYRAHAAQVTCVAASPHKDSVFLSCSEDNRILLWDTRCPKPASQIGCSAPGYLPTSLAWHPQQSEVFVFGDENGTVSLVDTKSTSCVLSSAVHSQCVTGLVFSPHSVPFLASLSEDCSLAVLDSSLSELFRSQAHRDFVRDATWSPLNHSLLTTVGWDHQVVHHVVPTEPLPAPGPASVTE

Compound	IC50 (HCT116 MTAP KO cells; [1])	Selectivity HCT 116-WT/ HCT116 MTAP KO (HCT116 MTAP KO cells)	IC50 (PRMT5-MTA; read-out: IC50)	IC50 (HCT116-WT cells; [2])	IC50 (HCT116 MTAP KO cells; read-out: HCT116 MTAP KO IC50 (nM))	IC50 (PRMT5-MTA)	IC50 (HCT116-WT cells; read-out: HCT116-WT IC50 (nM))
CCOC1CN(C(=O)c2cc3c(cc2C)nc(N)c2cnn(C)c23)N(c2ncccc2F)C1 (stereo not shown) [Example 453, (4-amino-1,7-dimethyl-1H-pyrazolo[4,3-c]quinolin-8-yl)(4-ethoxy-2-(3-fluoropyridin-2-yl)pyrazolidin-1-yl)methanone]	23 nM	22.74	5.2 nM	523 nM			
[2H]C([2H])([2H])OC1CN(C(=O)c2cc3c(cc2C)nc(N)c2cnn(C)c23)N(c2ncccc2F)C1 (stereo not shown) [Example 454, (4-amino-1,7-dimethyl-1H-pyrazolo[4,3-c]quinolin-8-yl)(2-(3-fluoropyridin-2-yl)-4-(methoxy-D3)pyrazolidin-1-yl)methanone]	36 nM	20.89	5.9 nM	752 nM			
Cc1cc2nc(N)c3cnn(C)c3c2cc1C(=O)N1CC(F)(F)CN1c1ncccc1F [Example 455, (4-amino-1,7-dimethyl-1H-pyrazolo[4,3-c]quinolin-8-yl)(4,4-difluoro-2-(3-fluoropyridin-2-yl)pyrazolin-1-yl)methanone]	9.5 nM	32.11	10.1 nM	305 nM			
Cn1ncc2c(N)nc3cc(Cl)c(C(=O)N4CC(F)(F)CN4c4ncc(Br)cc4F)cc3c21 [Example 456, (4-amino-7-chloro-1-methyl-1H-pyrazolo [4,3-c]quinolin-8-yl)(2-(5-bromo-3-fluor opyridin-2-yl)-4,4-difluoropyrazolidin-1-yl)methanone]	28 nM	68.89	7 nM	1930 nM			
Cn1ncc2c(N)nc3cc(Cl)c(C(=O)N4CC(F)(F)CN4c4ccccc4F)cc3c21 [Example 457, (4-amino-7-chloro-1-methyl-1H-pyrazolo [4,3-c]quinolin-8-yl)(4,4-difluoro-2-(2-fluorophenyl)pyrazolidin-1-yl)methanone]	12 nM	10.25	7.5 nM	123 nM			
Cn1ncc2c(N)nc3cc(Cl)c(C(=O)N4CC(F)(F)CN4c4ncc(F)cc4F)cc3c21 [Example 458, (4-amino-7-chloro-1-methyl-1H-pyrazolo [4,3-c]quinolin-8-yl)(2-(3,5-difluoropyridin-2-yl)-4,4-difluoropyrazolidin-1-yl)met hanone]	15 nM	24.73	5.1 nM	371 nM			
Cn1ncc2c(N)nc3cc(Cl)c(C(=O)N4CC(F)(F)CN4c4ncccc4F)cc3c21 [Example 459, (4-amino-7-chloro-1-methyl-1H-pyrazolo [4,3-c]quinolin-8-yl)(4,4-difluoro-2-(3-fluoropyridin-2-yl)pyrazolidin-1-yl)methanone]	30 nM	13.60	4.7 nM	408 nM			
Cn1ncc2c(N)nc3cc(Cl)c(C(=O)N4CC(F)(F)CN4c4ncc(Cl)cc4F)cc3c21 [Example 460, (4-amino-7-chloro-1-methyl-1H-pyrazolo [4,3-c]quinolin-8-yl)(2-(5-chloro-3-fluoropyridin-2-yl)-4,4-difluoropyrazolidin-1-yl)methanone]	18 nM	26.61	8.2 nM	479 nM			
Cn1ncc2c(N)nc3cc(Cl)c(C(=O)N4CC(F)(F)CN4c4cccc(F)c4F)cc3c21 [Example 461, (4-amino-7-chloro-1-methyl-1H-pyrazolo [4,3-c]quinolin-8-yl)(2-(2,3-difluorophenyl)-4,4-difluoropyrazolidin-1-yl)methanone]	15 nM	19.67	6.8 nM	295 nM			
Cn1ncc2c(N)nc3cc(Cl)c(C(=O)N4CC(F)(F)CN4c4cccc(F)n4)cc3c21 [Example 462, (4-amino-7-chloro-1-methyl-1H-pyrazolo [4,3-c]quinolin-8-yl)(4,4-difluoro-2-(6-fluoropyridin-2-yl)pyrazolidin-1-yl)methanone]	30 nM	16.13	6 nM	484 nM			
Cc1cc2nc(N)c3cnn(C)c3c2cc1C(=O)N1CCCN1c1ccc(C2CC2)cn1 [Example 468, (4-amino-1,7-dimethyl-1H-pyrazolo[4,3-c]quinolin-8-yl)(2-(5-cyclopropylpyridin-2-yl)pyrazolidin-1-yl)methanone]	180 nM	24.09	3.2 nM	4340 nM			
Cc1cc2nc(N)c3cnn(C)c3c2cc1C(=O)N1CC(C)CN1c1ncc(-c2cnn(C(F)(F)F)c2)cc1F (stereo not shown) [Example 472, (4-amino-1,7-dimethyl-1H-pyrazolo[4,3-c]quinolin-8-y1)(2-(3-fluoro-5-(1-(trifluor omethyl)-1H-pyrazol-4-yl)pyridin-2-yl)-4-methylpyrazolidin-1-yl)methanone]	30 nM	32.37	4.6 nM	971 nM			
Cc1cc2nc(N)c3cnn(C)c3c2cc1C(=O)N1CCCN1c1ncc(-c2cccnc2)cc1F [Example 473, (4-amino-1,7-dimethyl-1H-pyrazolo[4,3-c]quinolin-8-yl)(2-(5-fluoro-[3,3'-bipyridine]-6-yl)pyrazolidin-1-yl)methanone]	91 nM	56.09	9 nM	5100 nM			
Cc1cc2nc(N)c3cnn(C)c3c2cc1C(=O)N1CCCN1c1ncc(-c2cncs2)cc1F [Example 474, (4-amino-1,7-dimethyl-1H-pyrazolo[4,3-c]quinolin-8-yl)(2-(3-fluoro-5-(thiazol-5-yl)pyridin-2-yl)pyrazolidin-1-yl)methanone]	28 nM	33.18	7 nM	929 nM			
Cc1cc2nc(N)c3cnn(C)c3c2cc1C(=O)N1CC(C)CN1c1ncc(-c2scnc2C)cc1F (stereo not shown) [Example 475, (4-amino-1,7-dimethyl-1H-pyrazolo[4,3-c]quinolin-8-yl)(2-(3-fluoro-5-(4-methylthiazol-5-yl)pyridin-2-yl)-4-methylpyrazolidin-1-yl)methanone]	63 nM	43.81	5.1 nM	2760 nM			
Cc1ncc(-c2cnc(N3CC(C)CN3C(=O)c3cc4c(cc3C)nc(N)c3cnn(C)c34)c(F)c2)s1 (stereo not shown) [Example 476, (4-amino-1,7-dimethyl-1H-pyrazolo[4,3-c]quinolin-8-yl)(2-(3-fluoro-5-(2-methylthiazol-5-yl)pyridin-2-yl)-4-methylpyrazolidin-1-yl)methanone]	28 nM	33.64	5.6 nM	942 nM			
Cc1ncc(-c2cnc(N3CC(C)CN3C(=O)c3cc4c(cc3C)nc(N)c3cnn(C)c34)c(F)c2)cn1 (stereo not shown) [Example 477, (4-amino-1,7-dimethyl-1H-pyrazolo[4,3-c]quinolin-8-yl)(2-(3-fluoro-5-(2-methylpyrimidin-5-yl)pyridin-2-yl)-4-methylpyrazolidin-1-yl)methanone]	28 nM	52.00	4.7 nM	1460 nM			
Cc1cc2nc(N)c3cnn(C)c3c2cc1C(=O)N1CCCN1c1ncc(-c2ccc(N3CCN(C)CC3)nc2)cc1F [Example 478]		26.01			166 nM	19 nM	4320 nM
Cc1cc2nc(N)c3cnn(C)c3c2cc1C(=O)N1CC(C)CN1c1ncc(-c2cnc3c(cnn3C)c2)cc1F (stereo not shown) [Example 479, (4-amino-1,7-dimethyl-1H-pyrazolo[4,3-c]quinolin-8-yl)(2-(3-fluoro-5-(1-methyl-1H-pyrazolo[3,4-b]pyridin-5-yl)pyridin-2-yl)-4-methylpyrazolidin-1-yl)methanone]	32 nM	39.66	5.3 nM	1270 nM			
Cc1cc2nc(N)c3cnn(C)c3c2cc1C(=O)N1CC(C)CN1c1ncc(-c2cncs2)cc1F (stereo not shown) [Example 481, (4-amino-1,7-dimethyl-1H-pyrazolo[4,3-c]quinolin-8-yl)(2-(3-fluoro-5-(thiazol-5-yl)pyridin-2-yl)-4-methylpyrazolidin-1-yl)methanone]	15 nM	47.20	3.7 nM	708 nM			
Cc1cc2nc(N)c3cnn(C)c3c2cc1C(=O)N1CC(C)CN1c1ncc(-c2cccnc2)cc1F (stereo not shown) [Example 484, (4-amino-1,7-dimethyl-1H-pyrazolo[4,3-c]quinolin-8-yl)(2-(5-fluoro-[3,3'-bipyridine]-6-yl)-4-methylpyrazolidin-1-yl)metha none]	15 nM	55.73	6.4 nM	836 nM			
Cc1cc2nc(N)c3cnn(C)c3c2cc1C(=O)N1CCCN1c1ncc(-c2cscn2)cc1F [Example 486, (4-amino-1,7-dimethyl-1H-pyrazolo[4,3-c]quinolin-8-yl)(2-(3-fluoro-5-(thiazol-4-yl)pyridin-2-yl)pyrazolidin-1-yl)methanone]	34 nM	41.12	6.8 nM	1400 nM			
